Measured values: patent US20230332232A1, “COMPOSITIONS AND METHODS FOR DIAGNOSING AND TREATING A DYSTONIA” (Duke University, priority 2020, published 2023)

System: DYT1 knockin (Tor1a^delGAG/+) murine embryonic fibroblasts (MEFs)
Assay: microRNA-seq of EVs from DYT1 MEFs treated with drug, compared with non-treated DYT1 MEFs
Format: cell-based, mouse
Conditions: for Abs Z Score Sum (Geno + RTV) / RTV Direction Opposite dE?: EVs of DYT1 (Het) MEFs
Description: In addition to proteomic analysis, total RNA-seq and microRNA-seq was performed on RNA isolated in parallel from the EV samples of Cohort 2. As with the proteomic analysis, one biological replicate was prepared from 3 distinct biological clonal cell lines for each genotype. Here, EVs were isolated from conditioned cell culture media by 18 hour ultracentrifugation at 100,000 g. RNA was extracted using the Qiagen miRNeasy Micro Kit (Cat. No. 217084) according to the manufacturer's protocol. Two RNA fractions were extracted from each sample, one enriched in coding and non-coding RNA species>200 nt (“Total RNA” fraction) and one enriched for small RNAs<200 nt (“miRNA” fraction). RNA samples were then submitted to the Duke Sequencing and Genomic Technologies shared resource for further quality control and sequencing. Samples were assessed for concentration and integrity by Qubit and Fragment Analyzer. The miRNA fractions were 4.16 ng/μL-47.57 ng/μL and total RNA fractions were 3.8 ng/μL-43.6 ng/μL. The small RNA library was prepared using the QIAseq miRNA Library Kit (Cat No./ID: 331505) and sequenced on the Illumina NextSeq 500 High-Output platform with 75 bp single-reads. The total RNA library was prepared using the Illumina TruSeq Stranded Total RNA-seq Kit with Ribozero Gold ribosomal RNA reduction and sequenced on the Illumina NovaSeq 6000 S1 platform with 100 bp paired-end reads. Sequencer lane pooling and read depth are attached in the Excel data summary (See “RNA QC” Tab). Data processing and analysis were performed in collaboration with the Duke Genomic Analysis and Bioinformatics shared resource. RNA-seq data was processed using the TrimGalore toolkit (http://www.bioinformatics.babraham.ac.uk/projects/trim_galore), which employs Cutadapt(Martin M. (2011) EMBnet.journal. 17(1):10-12) to trim low quality bases and Illumina sequencing adapters from the 3' end of the reads. Only reads that were 20 nt or longer after trimming were kept for further analysis. Reads were mapped to the mouse genome and transcriptome ([…], et al. (2012) Nucleic Acids Res. 40(Database issue):[…]-97) using the STAR RNA-seq alignment tool (Dobin A, et al. (2013). Bioinformatics. 29(1):15-21). If the reads mapped to a single genomic location, then they were kept for subsequent analysis. Gene counts were compiled using the HTSeq tool (http://www-huber.embl.de/users/anders/HTSeq/). Only genes that had at least 10 reads in any given library were used in subsequent analysis. Normalization and differential expression was carried out using the DESeq26 Bioconductor (Huber W, et al. (2015) Nat Methods. 12(2):115-121) package with the R statistical programming environment (www.r-project.org). […] 694 miRNAs were initially examined with respect to QC, genotype, RTV effects, and ISRIB effects. This subset was the “Full miRNA” subset. FIG. 9A and FIG. 9B show the RTV effect on EV composition in DYT1 cells compared to WT cells for 279 miRNAs, respectively. […] Beginning with the 694 miRNAs in the “Full miRNA” subset, more than 60 molecules were detected in either WT cells or DYT1 cells (WT or Het UMI>60). […] The candidate miRNAs were ranked by the sum of genotype-dependent absolute Z-scores and RTV-induced absolute Z-scores (Abs Z Score Sum (Geno+RTV)). This subset was the “miRNA-Ritonavir Therapeutic Efficacy” subset and contained 201 miRNAs.

[1] = sum of genotype and RTV absolute Z-scores

CC(C)c1nc(CN(C)C(=O)N[C@H](C(=O)N[C@@H](Cc2ccccc2)C[C@H](O)[C@H](Cc2ccccc2)NC(=O)OCc2cncs2)C(C)C)cs1 [RTV, Ritonavir]
RTVvHet Z Score (mmu-miR-183-5p): 3.42 | Abs Z Score Sum (Geno + RTV) (mmu-miR-183-5p): 5.55 | RTV Direction Opposite dE? (mmu-miR-183-5p): yes | RTVvHet Z Score (mmu-miR-185-5p): 0.53 | RTVvHet Z Score (mmu-miR-186-5p): 0.33 | RTVvHet Z Score (mmu-miR-187-3p): 1.13 | Abs Z Score Sum (Geno + RTV) (mmu-miR-187-3p): 3.96 | RTV Direction Opposite dE? (mmu-miR-187-3p): yes | RTVvHet Z Score (mmu-miR-188-5p): 0.34 | RTVvHet Z Score (mmu-miR-190b-5p): 0.28 | RTVvHet Z Score (mmu-miR-191-5p): 0.28 | RTVvHet Z Score (mmu-miR-192-5p): 0.54 | Abs Z Score Sum (Geno + RTV) (mmu-miR-192-5p): 3.38 | RTV Direction Opposite dE? (mmu-miR-192-5p): yes | RTVvHet Z Score (mmu-miR-194-5p): 0.46 | RTVvHet Z Score (mmu-miR-199a-3p): 1.07 | RTV Direction Opposite dE? (mmu-miR-199a-3p): yes | RTVvHet Z Score (mmu-miR-199b-3p): 1.17 | RTV Direction Opposite dE? (mmu-miR-199b-3p): yes | RTVvHet Z Score (mmu-miR-206-3p): 0.20 | RTVvHet Z Score (mmu-miR-214-5p): 1.09 | RTVvHet Z Score (mmu-miR-219a-5p): 1.08 | RTVvHet Z Score (mmu-miR-223-3p): −0.59 | RTVvHet Z Score (mmu-miR-224-5p): 0.28 | RTVvHet Z Score (mmu-miR-296-3p): 3.08 | Abs Z Score Sum (Geno + RTV) (mmu-miR-296-3p): 5.10 | RTV Direction Opposite dE? (mmu-miR-296-3p): yes | RTVvHet Z Score (mmu-miR-298-5p): 3.59 | Abs Z Score Sum (Geno + RTV) (mmu-miR-298-5p): 6.72 | RTV Direction Opposite dE? (mmu-miR-298-5p): yes | RTVvHet Z Score (mmu-miR-299a-3p): 1.31 | RTVvHet Z Score (mmu-miR-301a-3p): 1.45 | RTVvHet Z Score (mmu-miR-301b-3p): 1.05 | RTVvHet Z Score (mmu-miR-320-3p): 0.76 | RTVvHet Z Score (mmu-miR-322-5p): 0.75 | RTVvHet Z Score (mmu-miR-324-3p): 0.82 | RTVvHet Z Score (mmu-miR-335-Sp): 1.02 | RTVvHet Z Score (mmu-miR-340-5p): 1.09 | RTVvHet Z Score (mmu-miR-344-3p): 1.30 | Abs Z Score Sum (Geno + RTV) (mmu-miR-344-3p): 4.24 | RTV Direction Opposite dE? (mmu-miR-344-3p): yes | RTVvHet Z Score (mmu-miR-350-3p): 0.41 | RTVvHet Z Score (mmu-miR-361-5p): 0.71 | RTVvHet Z Score (mmu-miR-362-3p): 1.05 | RTV Direction Opposite dE? (mmu-miR-362-3p): yes | RTVvHet Z Score (mmu-miR-362-5p): 0.83 | Abs Z Score Sum (Geno + RTV) (mmu-miR-362-5p): 3.62 | RTV Direction Opposite dE? (mmu-miR-362-5p): yes | RTVvHet Z Score (mmu-miR-378a-3p): 1.25 | RTVvHet Z Score (mmu-miR-450a-5p): 0.39 | RTVvHet Z Score (mmu-miR-450b-3p): 0.31 | RTVvHet Z Score (mmu-miR-451a): −1.37 | RTVvHet Z Score (mmu-miR-483-5p): 0.01 | RTVvHet Z Score (mmu-miR-500-3p): 1.09 | RTVvHet Z Score (mmu-miR-503-3p): 0.99 | RTVvHet Z Score (mmu-miR-532-5p): 0.52 | Abs Z Score Sum (Geno + RTV) (mmu-miR-532-5p): 3.77 | RTV Direction Opposite dE? (mmu-miR-532-5p): yes | RTVvHet Z Score (mmu-miR-542-3p): 0.81 | RTVvHet Z Score (mmu-miR-542-5p): 2.00 | Abs Z Score Sum (Geno + RTV) (mmu-miR-542-5p): 7.20 | RTV Direction Opposite dE? (mmu-miR-542-5p): yes | RTVvHet Z Score (mmu-miR-582-3p): 0.20 | RTVvHet Z Score (mmu-miR-652-3p): 0.93 | RTVvHet Z Score (mmu-miR-671-5p): 1.76 | RTV Direction Opposite dE? (mmu-miR-671-5p): yes | RTVvHet Z Score (mmu-miR-700-3p): 0.49 | RTVvHet Z Score (mmu-miR-708-5p): 1.28 | RTVvHet Z Score (mmu-miR-872-5p): 0.68 | RTVvHet Z Score (mmu-miR-1291): 1.91 | Abs Z Score Sum (Geno + RTV) (mmu-miR-1291): 3.34 | RTV Direction Opposite dE? (mmu-miR-1291): yes | RTVvHet Z Score (mmu-miR-1843a-5p): 0.28 | RTVvHet Z Score (mmu-miR-3102-3p): 0.95 | RTVvHet Z Score (mmu-miR-3535): 1.43 | Abs Z Score Sum (Geno + RTV) (mmu-miR-3535): 3.67 | RTV Direction Opposite dE? (mmu-miR-3535): yes | RTVvHet Z Score (mmu-miR-5121): 2.65 | Abs Z Score Sum (Geno + RTV) (mmu-miR-5121): 4.47 | RTV Direction Opposite dE? (mmu-miR-5121): yes | Abs Z Score Sum (Geno + RTV) (mmu-miR-30h-5p): 3.25 | RTV Direction Opposite dE? (mmu-miR-30h-5p): yes | RTVvHet Z Score (mmu-miR-30d-5p): 0.70 | RTVvHet Z Score (mmu-miR-344d-3p): 1.98 | Abs Z Score Sum (Geno + RTV) (mmu-miR-344d-3p): 4.51 | RTV Direction Opposite dE? (mmu-miR-344d-3p): yes | mmu-miR-147-5p: Abs Z Score Sum (Geno + RTV) [1]: 0.20 | mmu-miR-181a-1-3p: Abs Z Score Sum (Geno + RTV) [1]: 0.18 | mmu-miR-331-5p: Abs Z Score Sum (Geno + RTV) [1]: 0.00 | mmu-miR-668-3p: Abs Z Score Sum (Geno + RTV) [1]: 0.42 | mmu-miR-1930-5p: Abs Z Score Sum (Geno + RTV) [1]: 0.38 | mmu-miR-1943-5p: Abs Z Score Sum (Geno + RTV) [1]: 0.23 | mmu-miR-1955-5p: Abs Z Score Sum (Geno + RTV) [1]: 0.00 | mmu-miR-3072-5p: Abs Z Score Sum (Geno + RTV) [1]: 0.38 | mmu-miR-3076-3p: Abs Z Score Sum (Geno + RTV) [1]: 0.00 | mmu-miR-3088-3p: Abs Z Score Sum (Geno + RTV) [1]: 0.18 | mmu-miR-6936-3p: Abs Z Score Sum (Geno + RTV) [1]: 0.38 | mmu-miR-7224-3p: Abs Z Score Sum (Geno + RTV) [1]: 0.22 | mmu-miR-467d-3p: Abs Z Score Sum (Geno + RTV) [1]: 0.32
